Measured values published in US20260334439A1, “BCAT2 INHIBITORS” (Agios Pharmaceuticals, Inc., priority 2023, published 2026).

Tests used:
BCAT2 [1] = molecular target: T1, BCAT2 (Homo sapiens, UniProt O15382); assay: BCAT2 cell inhibition using engineered A549 cells (MUT KO, BCAT1 KO; 13C6-KMV formation by LC-MS/MS); assay type: cell-based; design: expressed endogenous BCAT2; endogenous in cells; host or cells: A549 cells, MUT knockout and BCAT1 knockout
T1 sequence (O15382 28-392): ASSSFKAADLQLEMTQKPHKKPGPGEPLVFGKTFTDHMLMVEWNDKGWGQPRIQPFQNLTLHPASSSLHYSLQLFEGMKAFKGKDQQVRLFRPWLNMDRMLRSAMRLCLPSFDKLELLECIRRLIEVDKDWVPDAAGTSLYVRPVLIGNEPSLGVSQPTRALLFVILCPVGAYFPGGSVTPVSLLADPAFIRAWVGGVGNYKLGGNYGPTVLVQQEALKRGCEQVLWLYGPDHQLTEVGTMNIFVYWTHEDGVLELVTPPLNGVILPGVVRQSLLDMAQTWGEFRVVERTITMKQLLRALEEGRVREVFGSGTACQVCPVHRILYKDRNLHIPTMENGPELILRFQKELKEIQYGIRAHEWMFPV
Summary of the method: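 Medium 13C6-KMV formation is read by LC-MS/MS after PFBHA derivatization with d8-KMV internal standard. Cells are CRISPR MUT/BCAT1 double-knockout A549 expressing endogenous BCAT2, given compound 15 min before labelled isoleucine (800 uM, added 1:1) for 24 h. CTG viability run in parallel; replicates averaged.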

BCAT2 [2] = molecular target: T1, BCAT2; assay: BCAT2 in vitro enzyme inhibition assay (hBCAT2, glutamate dehydrogenase/diaphorase/resazurin coupled fluorescence read); assay type: biochemical; details: hBCAT2, 1 h preincubation at 25° C., one hour reaction; average where tested multiple times
Summary of the method: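 Coupled GDH/diaphorase/resazurin fluorescence (Ex 540/Em 590) read after 1 h reaction at 25 °C, SDS-stopped; enzyme (0.33 μg/mL in mix) first preincubated 1 h with compound, 10-point 3-fold series from 100 μM final, Tris pH 8.0 buffer with NaCl, BSA; technical duplicates, averaged across tests.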

[3] = read-out: BCAT2 Cell Inhibition (IC50), engineered A549 cells, 24 hours, 13C6-KMV in media, average where tested multiple times

Compound | IC50 (BCAT2 [1]) [µM] | IC50 (BCAT2 [2]) [µM] | IC50 (BCAT2 [1]; [3]) [µM]
CCOc1ccc(Cl)cc1C(=O)N[C@H]1CCC[C@@H](n2c(-c3ncccc3F)nc3cnc(-c4nc[nH]n4)cc32)C1 [Example 27, 5-chloro-2-ethoxy-N-((1S,3R)-3-(2-(3-fluoropyridin-2-yl)-6-(1H-1,2,4-triazol-3-yl)-1H-imidazo[4,5-c]pyridin-1-yl)cyclohexyl)benzamide] | < 0.1 | < 0.1 | 
CO[C@H]1C[C@H](NC(=O)c2cc(F)ccn2)C[C@H](n2c(-c3ccccc3F)nc3cnc(-c4nc[nH]n4)cc32)C1 [Example 113, 4-fluoro-N-((1R,3S,5S)-3-(2-(2-fluorophenyl)-6-(1H-1,2,4-triazol-3-yl)-1H-imidazo[4,5-c]pyridin-1-yl)-5-methoxycyclohexyl)picolinamide] | < 0.1 | < 0.1 | 
O=C(N[C@H]1CCC[C@@H](n2c(-c3ccccc3F)nc3cnc(-n4nccn4)cc32)C1)c1cc(Cl)ccc1OCCO [Example 68, 5-chloro-N-((1S,3R)-3-(2-(2-fluorophenyl)-6-(2H-1,2,3-triazol-2-yl)-1H-imidazo[4,5-c]pyridin-1-yl)cyclohexyl)-2-(2-hydroxyethoxy)benzamide] | < 0.1 | < 0.1 | 
O=C(N[C@H]1CCC[C@@H](n2c(-c3ccccc3F)nc3cnc(-c4nc[nH]n4)cc32)C1)c1cc(Cl)cc2ccoc12 [Example 31, 5-chloro-N-((1S,3R)-3-(2-(2-fluorophenyl)-6-(1H-1,2,4-triazol-3-yl)-1H-imidazo[4,5-c]pyridin-1-yl)cyclohexyl)benzofuran-7-carboxamide] | < 0.1 | < 0.1 | 
O=C(N[C@H]1CCC[C@@H](n2c(-c3ccccc3OC(F)F)nc3cnc(-c4nc[nH]n4)cc32)C1)c1cc(Cl)ccc1OCCO [compound 73] | < 0.1 | < 0.1 | 
O=C(N[C@H]1CCC[C@@H](n2c(-c3ccccc3F)nc3cnc(-c4nc[nH]n4)cc32)C1)c1cc(Cl)ccc1OC(CO)CO [Example 90, 5-chloro-2-((1,3-dihydroxypropan-2-yl)oxy)-N-((1S,3R)-3-(2-(2-fluorophenyl)-6-(1H-1,2,4-triazol-3-yl)-1H-imidazo[4,5-c]pyridin-1-yl)cyclohexyl)benzamide] | 0.1 to 0.5 | < 0.1 | 
O=C(N[C@H]1CCC[C@@H](n2c(-c3c(O)cccc3F)nc3ccc(-c4nc[nH]n4)cc32)C1)c1cc(Cl)ccn1 [Example 227, 4-chloro-N-((1S,3R)-3-(2-(2-fluoro-6-hydroxyphenyl)-6-(1H-1,2,4-triazol-3-yl)-1H-benzo[d]imidazol-1-l)cyclohexyl)picolin-amide] | 0.1 to 0.5 | < 0.1 | 
CN1C[C@H](NC(=O)c2cc(Cl)ccc2F)C[C@H](n2c(-c3ccccc3F)nc3cnc(-c4nc[nH]n4)cc32)C1 [Example 145, 5-chloro-2-fluoro-N-((3R,5S)-5-(2-(2-fluorophenyl)-6-(1H-1,2,4-triazol-3-yl)-1H-imidazo[4,5-c]pyridin-1-yl)-1-methylpiperidin-3-yl)benzamide] | 0.1 to 0.5 | < 0.1 | 
O=C1c2cc(F)ccc2CN1[C@H]1CCC[C@@H](n2c(-c3c(O)cccc3F)nc3cnc(-c4nc[nH]n4)cc32)C1 [Example 179, 6-fluoro-2-((1S,3R)-3-(2-(2-fluoro-6-hydroxyphenyl)-6-(1H-1,2,4-triazol-3-yl)-1H-imidazo[4,5-c]pyridin-1-yl)cyclohexyl)isoindolin-1-one] | < 0.1 | < 0.1 | 
CN1C[C@H](NC(=O)c2cc(Cl)ccn2)C[C@H](n2c(-c3ncccc3F)nc3cnc(-c4nc[nH]n4)cc32)C1 [Example 132, 4-chloro-N-((3R,5S)-5-(2-(3-fluoropyridin-2-yl)-6-(1H-1,2,4-triazol-3-yl)-1H-imidazo[4,5-c]pyridin-1-yl)-1-methylpiperidin-3-yl)picolinamide] |  | < 0.1 | > 1
O=C(N[C@H]1CCC[C@@H](n2c(-c3ccccc3F)nc3cnc(-c4nc[nH]n4)cc32)C1)c1cc(Cl)ccc1F [Example 56, 5-chloro-2-fluoro-N-((1S,3R)-3-(2-(2-fluorophenyl)-6-(1H-1,2,4-triazol-3-yl)-1H-imidazo[4,5-c]pyridin-1-yl)cyclohexyl)benzamide] | < 0.1 | < 0.1 | 
COCCOc1ccc(F)cc1C(=O)N[C@H]1CCC[C@@H](n2c(-c3ccccc3F)nc3cnc(-c4nc[nH]n4)cc32)C1 [Example 59, 5-fluoro-N-((1S,3R)-3-(2-(2-fluorophenyl)-6-(1H-1,2,4-triazol-3-yl)-1H-imidazo[4,5-c]pyridin-1-yl)cyclohexyl)-2-(2-methoxyethoxy)benzamide] | < 0.1 | < 0.1 | 
O=C(N[C@H]1CCC[C@@H](n2c(-c3ccccc3OC(F)F)nc3cnc(-c4nc[nH]n4)cc32)C1)c1cc(Cl)ccc1O [compound 69] | < 0.1 | < 0.1 | 
O=C(N[C@H]1CCC[C@@H](n2c(-c3ccccc3OCCO)nc3cnc(-c4nc[nH]n4)cc32)C1)c1cc(Cl)ccc1F [Example 86, 5-chloro-2-fluoro-N-((1S,3R)-3-(2-(2-(2-hydroxyethoxy)phenyl)-6-(1H-1,2,4-triazol-3-yl)-1H-imidazo[4,5-c]pyridin-1-yl)cyclohexyl)benzamide] | 0.1 to 0.5 | < 0.1 | 
N#Cc1ccccc1-c1nc2cnc(-c3nc[nH]n3)cc2n1[C@@H]1CCC[C@H](NC(=O)c2cc(F)ccc2F)C1 [Example 81, N-((1S,3R)-3-(2-(2-cyanophenyl)-6-(1H-1,2,4-triazol-3-yl)-1H-imidazo[4,5-c]pyridin-1-yl)cyclohexyl)-2,5-difluorobenzamide] | 0.1 to 0.5 | < 0.1 | 
O=C1c2cc(F)ccc2CN1[C@H]1CCC[C@@H](n2c(-c3ccccc3OCCO)nc3cnc(-c4nc[nH]n4)cc32)C1 [Example 173, 6-fluoro-2-((1S,3R)-3-(2-(2-(2-hydroxyethoxy)phenyl)-6-(1H-1,2,4-triazol-3-yl)-1H-imidazo[4,5-c]pyridin-1-yl)cyclohexyl)isoindolin-1-one] | < 0.1 | < 0.1 | 
O=C1c2cc(F)ccc2CN1[C@H]1CCC[C@@H](n2c(-c3c(F)cccc3OC(F)F)nc3ccc(-c4nc[nH]n4)cc32)[C@@H]1O [compound 240] | 0.1 to 0.5 | < 0.1 | 
COc1ccc(Cl)cc1C(=O)N[C@@H]1C[C@H](n2c(-c3ncccc3F)nc3cnc(-c4nc[nH]n4)cc32)CN(C)C1 [Example 137, 5-chloro-N-((3R,5S)-5-(2-(3-fluoropyridin-2-yl)-6-(1H-1,2,4-triazol-3-yl)-1H-imidazo[4,5-c]pyridin-1-yl)-1-methylpiperidin-3-yl)-2-methoxybenzamide] |  | 0.1 to 0.5 | > 1
O=C1c2cc(F)ccc2CN1[C@H]1CCC[C@@H](n2c(-c3c(F)cccc3F)nc3cnc(-n4nccn4)cc32)[C@@H]1O [Example 186, 2-((1S,2S,3R)-3-(2-(2,6-difluorophenyl)-6-(2H-1,2,3-triazol-2-yl)-1H-imidazo[4,5-c]pyridin-1-yl)-2-hydroxycyclohexyl)-6-fluoroisoindolin-1-one] | < 0.1 | < 0.1 | 
O=C(N[C@H]1CCC[C@@H](n2c(-c3ccccc3OC(F)F)nc3cnc(-c4nc[nH]n4)cc32)C1)c1cc(F)ccn1 [compound 30] | < 0.1 | < 0.1 | 
O=C1c2cc(Cl)ccc2CN1[C@H]1CCC[C@@H](n2c(-c3ccccc3F)nc3cnc(-c4nc[nH]n4)cc32)[C@@H]1O [Example 183, 6-chloro-2-((1S,2S,3R)-3-(2-(2-fluorophenyl)-6-(1H-1,2,4-triazol-3-yl)-1H-imidazo[4,5-c]pyridin-1-yl)-2-hydroxycyclohexyl)isoindolin-1-one] | < 0.1 | < 0.1 | 
O=C1c2cc(Cl)ccc2OCN1[C@H]1CCC[C@@H](n2c(-c3ccccc3F)nc3cnc(-c4ncco4)cc32)[C@@H]1O [Example 215, 6-chloro-3-((1S,2S,3R)-3-(2-(2-fluorophenyl)-6-(oxazol-2-yl)-1H-imidazo[4,5-c]pyridin-1-yl)-2-hydroxycyclohexyl)-2,3-dihydro-4H-benzo[e][1,3]oxazin-4-one] | < 0.1 | < 0.1 | 
CN1C[C@H](NC(=O)c2cc(F)ccn2)C[C@H](n2c(-c3ccccc3OC(F)F)nc3cnc(-c4nc[nH]n4)cc32)C1 [compound 139] | < 0.1 | < 0.1 | 
COc1ccccc1C(=O)N[C@H]1CCC[C@@H](n2c(-c3ccccc3F)nc3cnc(-c4nc[nH]n4)cc32)C1 [Example 5, N-((1S,3R)-3-(2-(2-fluorophenyl)-6-(1H-1,2,4-triazol-3-yl)-1H-imidazo[4,5-c]pyridin-1-yl)cyclohexyl)-2-methoxybenzamide] | < 0.1 | < 0.1 | 
CCOc1ncc(Cl)cc1C(=O)N[C@H]1CCC[C@@H](n2c(-c3ccccc3F)nc3cnc(-c4nc[nH]n4)cc32)C1 [Example 23, 5-chloro-2-ethoxy-N-((1S,3R)-3-(2-(2-fluorophenyl)-6-(1H-1,2,4-triazol-3-yl)-1H-imidazo[4,5-c]pyridin-1-yl)cyclohexyl)nicotinamide] | < 0.1 | < 0.1 | 
